This is an account of results in US20060228405A1, “Phospholipid-based pharmaceutical formulations and methods for producing and using same” (Conforma Therapeutics Corporation, priority 2005, published 2006).

Series [1] concerns rat tail vein. The experiment in a line: Intravenous injection and tolerance, rat tail vein. Type of series: in vivo. To be noted: phospholipid dispersion; rats. On the procedure: (§1) Pharmacokinetics for the solution formulation and the dispersion formulation were very similar. The method of the invention was also used to prepare dispersion formulations with the hydrochloride and phosphate salts of Compound 237. […] Dispersion formulations were also prepared using water soluble and slightly water soluble derivatives of geldanamycin. Specifically, similar dispersions containing DMAG were similarly formulated and well-tolerated upon tail vein injection into mice and rats.

Series [2] concerns tail vein. The experiment in a line: Intravenous injection and tolerance, tail vein injection into mice. In kind it is in vivo. To be noted: phospholipid dispersion. On the procedure: as §1
The nature of series [3]: Solvent stability of low melt form of 17-AAG slurried in H2O:EtOH (90:10). Type of series: physicochemical. The note with it: crystals slurried in H2O:EtOH (90:10). On the procedure:
17-AAG may be prepared from geldanamycin via reaction with allyamine in dry THF under a nitrogen atmosphere. The crude product may be purified by slurrying in H2O:EtOH (90:10), and the washed crystals obtained have a melting point of 206-212° C. by capillary melting point technique. A second product of 17-AAG can be obtained by dissolving and recrystallizing the crude product from 2-propyl alcohol (isopropanol). This second 17-AAG product has a melting point between 147-153° C. by capillary melting point technique. […] See Examples 1-2 for details of the preparation of the two polymorphic forms of 17-AAG. In addition to the high melt and low melt forms, it is well known that 17-AAG has an amorphous form.
The 17-AAG product from Example 2 was dissolved in 400 mL of H2O:EtOH (90:10) at 25° C. Filltration followed by aging at 45° C. for 8 hr gave […] (68.6 mmol) of 17-AAG as purple crystals (95% yield, >99% pure by HPLC monitored at 254 nm). m.p.=[…]. ^1H NMR and HPLC are consistent with the desired product.

The conditions of series [4]: mean +/- SD; cited from earlier work.

`CO[C@H]1/C=C\C=C(/C)C(=O)NC2=CC(=O)C(NCCN(C)C)=C(C[C@@H](C)C[C@H](OC)[C@H](O)[C@@H](C)/C=C(\C)[C@@H]1OC(N)=O)C2=O` [DMAG, 17-N,N-dimethylaminoethylaminogeldanamycin]: the “tolerance upon tail vein injection” value in series [1] and in series [2] was “well-tolerated” each time. On to `C=CCNC1=C2C[C@@H](C)C[C@H](OC)[C@H](O)[C@@H](C)/C=C(\C)[C@H](OC(N)=O)[C@@H](OC)/C=C\C=C(/C)C(=O)NC(=CC1=O)C2=O` [low melt form of 17-AAG, 17-allylamino-17-desmethyl-geldanamycin], for which the “conversion of low melt form to high melt form” value in series [3] is “no conversion to the high melt form was observed”.

With `C=CCNC1=C2C[C@@H](C)C[C@H](OC)[C@H](O)[C@@H](C)/C=C(\C)[C@H](OC(N)=O)[C@@H](OC)/C=C\C=C(/C)C(=O)NC(=CC1=O)C2=O` [Compound 17-AAG, 17-allylamino-17-desmethyl-geldanamycin], the steady-state volume in series [4] is reported as 86.6+34.6 L/m^2.
